Article PMC6902473 (Clinical Epigenetics, 2019)
Several values for one entry are separate records, joined by “and”; a condition that tells them apart may be missing. Identical values can stand only once.

Experiments:
[1] = human, in vivo
Method: The study design was a single-arm, multi-center phase I/II clinical trial with two phases: Phase I was an intra-patient dose (de)escalation period until an individual maximum tolerable dose (MTD) was reached. […] A DLT was defined as grade 3 or 4 toxicity according to a selection of Common Toxicity Criteria for Adverse Events (CTCAE) (V4.0) and judged by the investigator as definitely, probably, or possibly related to the study drug. The starting dose was 180 mg/m^2/day and the minimum dose was 30 mg/m^2/day. A dosing nomogram was used to minimize interpatient dosing variability.
De-escalation was done in steps of 50 mg/m^2/day until a minimal dose of 30 mg/m^2/day was reached. […] Upon reaching her or his individual MTD, a patient seamlessly entered phase II of the protocol.
(§1) During phase II, disease assessments were performed every 3 months, starting 3 months after reaching individual MTD. If treatment was discontinued for any reason during phase II, treatment was prolonged thereafter to provide a minimal treatment window of 3 months before measuring response. Patients without progressive disease continued the therapy at their individual MTD until disease progression (but no longer than 9 months). In case of clinical benefit, treatment could be continued on an individual basis at the discretion of the investigator. Toxicities were graded according CTCAE V4.0.
(§2) The primary end point was to determine a safe dose recommendation (SDR), defined as the highest dose with a DLT in no more than 1/50 patients.
The DLT associated with the starting dose was to be continuously monitored using a Bayesian criterion with a non-informative prior and a binomial-beta model for the DLT rate r. […] This decision process was repeated, i.e., it was applied to the lowered starting dose in an analogous way.
All adverse events were summarized, using MedDRA preferred terms.

[2] = system: relapsed or therapy-refractory solid tumors (including brain tumors), lymphoma, or leukemia; experiment: Phase II tumor response and survival at individual MTD (RECIST version 1.1)
Method: as §1, §2
Pretreatment evaluations included medical history, physical examination, ECG, ß-hCG in urine pregnancy test (if applicable), and complete blood count including differential, serum electrolytes liver, and renal function tests. Tumor markers were determined if appropriate. During phase I and the first 3 months of phase II (until the first response evaluation), history, physical examination, and laboratory studies were obtained weekly. If patients continued treatment beyond the first response evaluation in phase II (i.e., not showing PD), evaluations were performed every 2 weeks. After end of treatment, patients were followed-up for 3 months according the same scheme. In addition, an ECG was performed during phase I on day 8, 15, and at the time of reaching the individual MTD. Disease evaluations were performed at baseline, after 3 months of treatment at individual MTD, and every 3 months thereafter, using MRI (solid tumors, brain tumors, lymphomas), MIBG scan (neuroblastoma), or bone marrow evaluation (leukemia). Responses were reported using RECIST version 1.1 (solid tumors, brain tumors, lymphomas) [42–44] or the International Neuroblastoma Response Criteria (INRC) (neuroblastoma) [45], by central review. Bone marrow aspirates were evaluated in a central lab together with peripheral blood differential blood counts.
Standard methods for survival analysis (e.g., Kaplan-Meier estimates of the survival curves, Greenwood’s formula for estimating the standard error of event rates) were used for the analysis of time-to-event endpoints. […] Efficacy analysis included all patients who had completed the escalation/de-escalation scheme and started with the individual therapy at the MTD.
The AUCs were calculated by mixed log-linear model. Following exploratory aims to predict progression free survival (PFS) and overall survival (OS), an optimal cutpoint in the continuous PK parameter distributions of Cmax and AUC/D was determined by the minimum p value approach based on the log-rank test [51]. Graphical and statistical analysis was performed with Graphpad Prism 7.0 (Graphpad Software Inc., La Jolla, CA, USA), Kinetica 5.0 (Thermo Fisher Scientific, Waltham, MA, USA), and the R software/environment version 3.5.1 (R Foundation for Statistical Computing, Vienna, Austria).

[3] = single patient: High grade glioma, highest methylation score for glioblastoma IDH wt, (NC) not censored
[4] = single patient: High grade glioma, methylation profile pilocytic astrocytoma, BRAF (p.V600E), (C) censored
[5] = single patient: Medulloblastoma, (C) censored
[6] = single patient: SETTLE tumor, (C) censored

## O=C(CCCCCCC(=O)Nc1ccccc1)NO [vorinostat]
[1]
  Patients with all causalities AE: AE: 49 (98) No. (%)
  Patients with all causalities AE: AE leading to dose reduction or temporary treatment discontinuation: 38 (76) No. (%)
  Patients with all causalities AE: AE leading to treatment discontinuation: 9 (18) No. (%)
  Patients with all causalities AE: SAEs: 19 (38) No. (%)
  Patients with all causalities AE: Severe AEs (CTCAE grade 3/4): 48 (96) No. (%)
  Patients with treatment related AE: Alanine aminotransferase increased: 2 (4.0) Patients (%)
  Patients with treatment related AE: Alopecia: 9 (18.0) Patients (%)
  Patients with treatment related AE: Anemia: 8 (16.0) Patients (%)
  Patients with treatment related AE: Blood creatinine increased: 5 (10.0) Patients (%)
  Patients with treatment related AE: Blood lactate dehydrogenase increased: 4 (8.0) Patients (%)
  Patients with treatment related AE: Constipation: 4 (8.0) Patients (%)
  Patients with treatment related AE: Cough: 3 (6.0) Patients (%)
  Patients with treatment related AE: Decreased appetite: 5 (10.0) Patients (%)
  Patients with treatment related AE: Diarrhea: 11 (22.0) Patients (%)
  Patients with treatment related AE: Dry skin: 4 (8.0) Patients (%)
  Patients with treatment related AE: Fatigue: 9 (18.0) Patients (%)
  Patients with treatment related AE: Headache: 5 (10.0) Patients (%)
  Patients with treatment related AE: Nausea: 11 (22.0) Patients (%)
  Patients with treatment related AE: Platelet count decreased: 6 (12.0) Patients (%)
  Patients with treatment related AE: Pyrexia: 3 (6.0) Patients (%)
  Patients with treatment related AE: Vomiting: 8 (16.0) Patients (%)
  Patients with treatment related AE: Weight decreased: 5 (10.0) Patients (%)
  Patients with treatment related AE: White blood cell decreased: 1 (2.0) Patients (%)
  Total of patients with treatment related AE: Alanine aminotransferase increased: 4 (8.0, 2.2 - 19.2) Patients (%, 95% CIs)
  Total of patients with treatment related AE: Alopecia: 9 (18.0, 8.6 - 31.4) Patients (%, 95% CIs)
  Total of patients with treatment related AE: Blood creatinine increased: 5 (10.0, 3.3 - 21.8) Patients (%, 95% CIs)
  Total of patients with treatment related AE: Blood lactate dehydrogenase increased: 4 (8.0, 2.2 - 19.2) Patients (%, 95% CIs)
  Total of patients with treatment related AE: Constipation: 4 (8.0, 2.2 - 19.2) Patients (%, 95% CIs)
  Total of patients with treatment related AE: Decreased appetite: 7 (14.0, 5.8 - 26.7) Patients (%, 95% CIs)
  Total of patients with treatment related AE: Headache: 6 (12.0, 4.5 - 24.3) Patients (%, 95% CIs)
  Total of patients with treatment related AE: Weight decreased: 8 (16.0, 7.2 - 29.1) Patients (%, 95% CIs)
  Total of patients with treatment related AE: White blood cell decreased: 9 (18.0, 8.6 - 31.4 ) Patients (%, 95% CIs)
  Total sum of DLTs: Abdominal pain: 1
  Total sum of DLTs: Abdominal pain upper: 2
  Total sum of DLTs: Aggression: 1
  Total sum of DLTs: Alanine aminotransferase increased: 3
  Total sum of DLTs: Anemia: 2
  Total sum of DLTs: Apathy: 1
  Total sum of DLTs: Decreased appetite: 3
  Total sum of DLTs: Fatigue: 7
  Total sum of DLTs: Febrile infection: 2
  Total sum of DLTs: Hypermagnesemia: 3
  Total sum of DLTs: Hypokalemia: 1
  Total sum of DLTs: Loss of personal independence in daily activities: 1
  Total sum of DLTs: Vomiting: 2
  Total sum of DLTs: Weight decreased: 2
  Total sum of DLTs: White blood cell decreased: 11
[2]; Efficacy population (n = 27)
  Best ORR (CR + PR + SD): 6 (22.2, 8.6–42.3) No. (%, 95% CI)
  Best RR (CR + PR): 4 (14.8, 4.2–33.7) No. (%, 95% CI)
  Median OS (95% CI): 22.4 months and 22.4 (6.3 - --) months
  Median PFS (95% CI): 5.3 (4.6–5.9) months
  Median response duration: 19.1 months
  best overall response rate (combining PR and SD, no CR observed): 22%
[2]; Safety population (n = 50)
  Best ORR (CR + PR + SD): 6 (12.0, 4.5–24.3) No. (%, 95% CI)
  Best RR (CR + PR): 4 (8.0, 2.2–19.2) No. (%, 95% CI)
  Median OS (95% CI): 6.1 (4.0–10.4) months
  Median PFS (95% CI): 4.6 (3.7–5.3) months
  Median response duration: 19.1 months
[2]; first response evaluation, after 3-month treatment at individual MTD, efficacy population
  patients with partial response (PR): 3/27
[2]; [3]
  OS: 750 (NC) Days
  PFS: 441 (NC) Days
[2]; [4]
  OS: 1352 (C) Days
  PFS: 385 (C) Days
[2]; single patient: High grade glioma, no molecular data, last dose level 280 mg/m^2/d, (C) censored
  PFS: 499 (C) Days
[2]; single patient: High grade glioma, no molecular data, last dose level 280 mg/m^2/d, (NC) not censored
  OS: 682 (NC) Days
[2]; [5]
  OS: 871 (C) Days
  PFS: 422 (C) Days
[2]; [6]
  OS: 1190 (C) Days
  PFS: 456 (C) Days
